From patent US9868935B2, “Composition and method of stem cells for preservation of cardiac tissue” (CRIOESTAMINAL, SAÚDE E TECNOLOGIA, SA., priority 2012, dated 2018)

Tests used:
CD34+ cells [1] = assay: Cytokine secretion by CD34+ cells (Bio-Plex cytokine bead array); type: cell-based, human; settings: LPA 100 μM; hypoxia, serum free, 24 h
Method: In an embodiment, cell culture supernatants were evaluated for the presence and concentrations of cytokines using a Bio-Plex Pro Human Cytokine 17-Plex Panel Assay (preferably, Bio-Rad, Hercules, Calif., USA), according to manufacturer's instructions, in a Bio-Plex 200 System (Bio-Rad, www.bio-rad.com). The human Group I 17-Plex Panel consisted of the following analytes: interleukin-1β (IL-1β), IL-2, IL-4, IL-5, IL-6, IL-7, IL-8; IL-10, IL-12(p70), IL-13, IL-17, granulocyte colony-stimulating factor (G-CSF), granulocyte/macrophage colony-stimulating factor (GM-CSF), interferon-γ (IFN-γ), monocyte chemotactic protein (monocyte chemotactic activating factor [MCP-1 (MCAF)], macrophage inflammatory protein-β (MIP-1 β) and tumor necrosis factor-α (TNF-α). Supernatant media samples were collected, centrifuged to remove precipitates and frozen. A standard range of 0.2 to 3,200 pg/mL was used. Samples and controls were run in triplicate, standards and blanks in duplicate.
To determine the effect of LPA in the release of signaling cytokines and growth factors by CD34+ cells, was used a cytokine bead array. The cells were incubated in serum free medium X-Vivo for 24 h under normoxia or hypoxia conditions, either in the presence or absence of LPA (100 μM). Untreated CD34+ cells in normoxia express high levels (>100 pg/mL) of IL-8 and MIP-1b, medium levels (between 100 and 1 pg/mL) of IL-6, TNF-α and GM-CSF, and low levels (<1 pg/mL) of IL-1β, IL-4 and IL-17 (FIG. 5C).

CD34+ cells [2] = assay: Antagonist pretreatment and LPA-induced CD34+ cell survival in hypoxia (Annexin V/PI FACS); type: cell-based, human; settings: LPA 100 μM alone (+LPA, no antagonist); hypoxia 24 h
Method: FIG. 5—LPA induces CD34+ cell survival mainly through peroxisome proliferator-activator receptor (PPAR). Cells were cultured in serum free medium with LPA. Cells were pretreated with Rho kinase inhibitor (Y-2762, 50 μM), mitogen-activated protein kinase (MAPK) inhibitor (PD98059, 60 μM), LPA1- and LPA3-specific inhibitor (Ki16425, 10 μM), or peroxisome proliferator-activator receptor g (PPARg) inhibitor (GW9662, 50 μM) for 1 hour before hypoxia and cell medium containing LPA (100 μM) for 24 h. Cells without any pretreatment and cultured in serum free medium with or without LPA, in hypoxia for 24 h, were used as positive and negative controls, respectively. Results are average±SEM (n=3-6). * Denote statistical significance: *P<0.05, **P<0.01, […].
The biological roles of LPA are diverse and include developmental, physiological, and pathophysiological effects (Lin, M. E., D. R. Herr, and J. Chun, Lysophosphatidic acid (LPA) receptors: signaling properties and disease relevance. Prostaglandins Other Lipid Mediat, 2010. 91(3-4): p. 130-8). To date up to five LPA receptors (LPARs) have been identified: LPA1-LPA5 (Choi, J. W., et al., LPA receptors: subtypes and biological actions. Annu Rev Pharmacol Toxicol, 2010. 50: p. 157-86). The receptors are G protein-coupled receptors (GPCRs) and their presence can be found in multiple tissues. LPA1, LPA2 and LPA3 are widely expressed in most tissues (Ishii, I., et al., Functional comparisons of the lysophosphatidic acid receptors, LP(A1)/VZG-1/EDG-2, LP(A2)/EDG-4, and LP(A3)/EDG-7 in neuronal cell lines using a retrovirus expression system. Mol Pharmacol, 2000. 58(5): p. 895-902). LP4 is expressed in specific organs, such as the pancreas, ovaries and thymus (Lee, C. W., et al., LPA(4)/GPR23 is a lysophosphatidic acid (LPA) receptor utilizing G(s)-, G(q)/G(i)-mediated calcium signaling and G(12/13)-mediated Rho activation. J Biol Chem, 2007. 282(7): p. 4310-7). LPA5 is expressed at low levels in multiple tissues (Lee, C. W., et al., GPR92 as a new G12/13- and Gq-coupled lysophosphatidic acid receptor that increases cAMP, LPA5. J Biol Chem, 2006. 281(33): p. 23589-97). To identify the receptor that is mediating the pro-survival effect of LPA (100 μM), was used Ki16425 (10 μM), an LPA1- and LPA3-specific antagonist, and GW9662 (50 μM), an antagonist of peroxisome proliferator-activator receptor γ (PPAR γ). Studies indicate that LPA has a high affinity by this last receptor (McIntyre, T. M., et al., Identification of an intracellular receptor for lysophosphatidic acid (LPA): LPA is a transcellular PPARgamma agonist. Proc Natl Acad Sci USA, 2003. 100(1): p. 131-6; Gustin, C., M. Van Steenbrugge, and M. Raes, LPA modulates monocyte migration directly and via LPA-stimulated endothelial cells. Am J Physiol Cell Physiol, 2008. 295(4): p. C905-14). This approach was complemented, by inhibiting downstream targets of the receptors including Rho kinase and mitogen-activated protein kinase (MAPK) using Y-2762 (50 μM) and PD98059 (60 μM) antagonists, respectively. It is known that all LPARs couple with and activate G proteins, which in turn activate MAPK (LPA1, LPA2, LPA3 and LPA4) and Rho kinase (LPA1, LPA2, LPA4 and LPA5) (Choi, J. W., et al., LPA receptors: subtypes and biological actions. Annu Rev Pharmacol Toxicol, 2010. 50: p. 157-86). Cells were treated for 1 h in X-Vivo medium containing a specific antagonist followed by culture under hypoxia conditions for 24 h. Cell survival was assessed by FACS analysis after Annexin V/PI staining. […] The number of viable cells decreased from 77% (+LPA) to 67% (P<0.01, n=19). […] Because the two signaling pathways are downstream targets of different LPARs (see above), this might indicate different contributions of LPARs in the survival of CD34+ cells.

Substance: lysophosphatidic acid [LPA]
- secretion of GM-CSF (CD34+ cells [1]): ~1 pg/mL
- secretion of IL-1 (CD34+ cells [1]): ~2 pg/mL
- secretion of IL-4 (CD34+ cells [1]): ~2.7 pg/mL
- secretion of IL-6 (CD34+ cells [1]): ~2 pg/mL
- secretion of IL-8 (CD34+ cells [1]): ~17,000 pg/mL
- secretion of TNF-α (CD34+ cells [1]): ~15 pg/mL
- number of viable cells (CD34+ cells [2]): ~77%
